What was measured:
[1] = biological target: T1, Mer (Homo sapiens, UniProt Q12866); assay: Mer autophosphorylation ELISA in transient transfected 293A cells; type: cell-based; settings: cellular activity; MERTK-transfected 293A cells, phospho-Mer ELISA
T1 construct: host or cells: 293A cells (Thermo Fisher #R70507)
T1 sequence (Q12866 21-999): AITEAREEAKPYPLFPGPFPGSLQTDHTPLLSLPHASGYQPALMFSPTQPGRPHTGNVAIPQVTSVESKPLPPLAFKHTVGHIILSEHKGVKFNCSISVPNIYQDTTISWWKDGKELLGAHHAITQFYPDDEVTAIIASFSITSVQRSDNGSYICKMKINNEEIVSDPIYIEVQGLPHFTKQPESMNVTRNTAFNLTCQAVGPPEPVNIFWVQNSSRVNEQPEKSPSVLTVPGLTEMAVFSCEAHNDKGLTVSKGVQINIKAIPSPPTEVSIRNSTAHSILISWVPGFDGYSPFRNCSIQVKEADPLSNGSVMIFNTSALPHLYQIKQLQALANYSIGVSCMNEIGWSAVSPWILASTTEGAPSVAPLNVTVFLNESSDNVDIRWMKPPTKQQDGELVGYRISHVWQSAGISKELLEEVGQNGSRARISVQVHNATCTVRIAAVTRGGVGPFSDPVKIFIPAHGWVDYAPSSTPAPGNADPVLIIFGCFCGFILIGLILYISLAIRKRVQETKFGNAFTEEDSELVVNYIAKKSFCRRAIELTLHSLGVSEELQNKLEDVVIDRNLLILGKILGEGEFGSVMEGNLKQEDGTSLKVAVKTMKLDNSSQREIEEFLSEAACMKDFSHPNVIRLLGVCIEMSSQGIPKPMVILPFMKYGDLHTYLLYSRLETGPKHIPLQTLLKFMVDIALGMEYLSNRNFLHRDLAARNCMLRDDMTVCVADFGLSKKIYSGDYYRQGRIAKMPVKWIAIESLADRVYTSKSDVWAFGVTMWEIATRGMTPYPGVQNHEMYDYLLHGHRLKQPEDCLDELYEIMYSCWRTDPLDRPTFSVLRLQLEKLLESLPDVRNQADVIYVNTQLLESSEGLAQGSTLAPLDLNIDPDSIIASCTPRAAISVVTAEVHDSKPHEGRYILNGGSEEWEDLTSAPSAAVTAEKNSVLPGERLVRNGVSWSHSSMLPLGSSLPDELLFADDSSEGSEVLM
Procedure, shortened: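 293A cells transiently transfected with human MERTK DNA, then treated 1 h with 8-point compound dilutions in serum-free medium (0.3% DMSO). Phospho-Mer in lysates quantified by sandwich ELISA against phospho-Mer standard; normalised to DMSO (100%) and reference inhibitor (0%), IC50 from 4-parameter logistic fit.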

[2] = biological target: Met (Homo sapiens, UniProt P08581); assay: Met autophosphorylation ELISA in PC-3 cells; type: cell-based; set-up: endogenous in cells; host or cells: PC-3 prostate cancer cells (ATCC #CRL-1435); settings: cellular activity, HGF-stimulated, phospho-Met ELISA, read-out: c-Met IC50
Procedure, shortened: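 PC-3 cells serum-starved 3 h, treated 1 h with 8-point compound series (0.3% DMSO), then stimulated with 100 ng/mL human HGF for 10 min. Lysate phospho-Met (panTyr) measured by sandwich ELISA; IC50 from 4-parameter logistic fit against DMSO and reference-inhibitor controls.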

Met, sequence (P08581 25-1390): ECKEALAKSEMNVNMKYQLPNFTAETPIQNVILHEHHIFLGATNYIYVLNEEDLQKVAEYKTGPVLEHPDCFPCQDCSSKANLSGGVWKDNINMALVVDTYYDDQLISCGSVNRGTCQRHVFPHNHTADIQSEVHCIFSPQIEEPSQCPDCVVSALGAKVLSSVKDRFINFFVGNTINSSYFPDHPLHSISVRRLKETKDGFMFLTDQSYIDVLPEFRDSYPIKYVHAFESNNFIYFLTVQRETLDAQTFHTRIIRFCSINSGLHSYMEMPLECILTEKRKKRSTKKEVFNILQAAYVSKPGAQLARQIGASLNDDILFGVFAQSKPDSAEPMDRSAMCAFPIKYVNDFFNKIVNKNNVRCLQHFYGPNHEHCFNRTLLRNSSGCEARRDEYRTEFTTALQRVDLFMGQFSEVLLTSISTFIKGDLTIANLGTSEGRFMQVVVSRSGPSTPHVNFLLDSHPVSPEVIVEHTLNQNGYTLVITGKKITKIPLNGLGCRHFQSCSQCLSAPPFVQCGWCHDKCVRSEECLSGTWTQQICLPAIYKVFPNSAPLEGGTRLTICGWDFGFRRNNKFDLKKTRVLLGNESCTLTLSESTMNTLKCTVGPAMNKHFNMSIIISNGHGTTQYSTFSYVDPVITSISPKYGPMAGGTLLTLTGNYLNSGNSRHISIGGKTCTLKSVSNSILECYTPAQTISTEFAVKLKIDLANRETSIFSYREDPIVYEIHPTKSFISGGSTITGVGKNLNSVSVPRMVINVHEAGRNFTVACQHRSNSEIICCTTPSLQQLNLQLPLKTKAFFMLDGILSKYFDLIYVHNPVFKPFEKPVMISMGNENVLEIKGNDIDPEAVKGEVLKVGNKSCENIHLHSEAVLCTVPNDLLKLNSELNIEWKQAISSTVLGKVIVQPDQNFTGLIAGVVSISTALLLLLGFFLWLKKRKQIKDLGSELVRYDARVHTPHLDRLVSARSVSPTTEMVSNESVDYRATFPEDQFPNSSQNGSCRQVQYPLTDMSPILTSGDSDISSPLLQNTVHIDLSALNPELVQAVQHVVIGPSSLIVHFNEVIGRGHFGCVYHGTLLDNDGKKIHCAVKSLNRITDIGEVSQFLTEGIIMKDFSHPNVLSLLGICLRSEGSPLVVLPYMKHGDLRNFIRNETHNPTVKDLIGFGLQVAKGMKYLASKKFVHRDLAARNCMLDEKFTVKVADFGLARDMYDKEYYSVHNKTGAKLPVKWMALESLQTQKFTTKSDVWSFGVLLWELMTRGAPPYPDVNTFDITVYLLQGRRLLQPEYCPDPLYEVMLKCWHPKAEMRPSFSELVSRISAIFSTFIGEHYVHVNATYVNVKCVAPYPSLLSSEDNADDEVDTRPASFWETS

Compound	IC50 [1]	IC50 [2]
O=C(Nc1ccc(F)cc1)C1(C(=O)Nc2ccc(Oc3ccnc4cc(-c5ccccc5)ccc34)cc2)CC1 [Compound 55, 1-N′-(4-Fluorophenyl)-1-N-[4-(7-phenylquinolin-4-yl)oxyphenyl]cyclopropane-1,1-dicarboxamide]	100 to 300 nM	100 to 300 nM
Cc1cn(-c2ccc3c(Oc4ccc(NC(=O)C5(C(=O)Nc6ccc(F)cc6)CC5)cc4)ccnc3c2)cn1 [Compound 87, 1-N′-(4-Fluorophenyl)-1-N-[4-[7-(4-methylimidazol-1-yl)quinolin-4-yl]oxyphenyl]cyclopropane-1,1-dicarboxamide]	10 to 100 nM	10 to 100 nM
Nc1n[nH]cc1-c1ccc2c(Oc3ccc(NC(=O)C4(C(=O)Nc5ccc(F)cc5)CC4)cc3)ccnc2c1 [Compound 90, 1-N-[4-[7-(3-Amino-1H-pyrazol-4-yl)quinolin-4-yl]oxyphenyl]-1-N′-(4-fluorophenyl)cyclopropane-1,1-dicarboxamide]	10 to 100 nM	10 to 100 nM
Cc1ccn(-c2ccc3c(Oc4ccc(NC(=O)C5(C(=O)Nc6ccc(F)cc6)CC5)cc4)ccnc3c2)n1 [Compound 91, 1-N′-(4-Fluorophenyl)-1-N-[4-[7-(3-methylpyrazol-1-yl)quinolin-4-yl]oxyphenyl]cyclopropane-1,1-dicarboxamide]	100 to 300 nM	10 to 100 nM
CC(=O)N1CCC(c2ccc3c(Oc4ccc(NC(=O)C5(C(=O)Nc6ccc(F)cc6)CC5)cc4)ccnc3c2)C1 (stereo not drawn) [Compound 92, 1-N-[4-[7-(1-Acetylpyrrolidin-3-yl)quinolin-4-yl]oxyphenyl]-1-N′-(4-fluorophenyl)cyclopropane-1,1-dicarboxamide]	10 to 100 nM	10 to 100 nM
CS(=O)(=O)N1CCC(c2ccc3c(Oc4ccc(NC(=O)C5(C(=O)Nc6ccc(F)cc6)CC5)cc4)ccnc3c2)C1 (stereo not drawn) [Compound 93, 1-N′-(4-Fluorophenyl)-1-N-[4-[7-(1-methylsulfonylpyrrolidin-3-yl)quinolin-4-yl]oxyphenyl]cyclopropane-1,1-dicarboxamide]	100 to 300 nM	10 to 100 nM
O=C(Nc1ccc(F)cc1)C1(C(=O)Nc2ccc(Oc3ccnc4cc(-c5cnn(CF)c5)ccc34)cc2)CC1 [Compound 94, 1-N-[4-[7-[1-(Fluoromethyl)pyrazol-4-yl]quinolin-4-yl]oxyphenyl]-1-N′-(4-fluorophenyl)cyclopropane-1,1-dicarboxamide]	10 to 100 nM	10 to 100 nM
O=C(Nc1ccc(F)cc1)C1(C(=O)Nc2ccc(Oc3ccnc4cc(C5=CCOC5)ccc34)cc2)CC1 [Compound 95, 1-N-[4-[7-(2,5-Dihydrofuran-3-yl)quinolin-4-yl]oxyphenyl]-1-N′-(4-fluorophenyl)cyclopropane-1,1-dicarboxamide]	10 to 100 nM	10 to 100 nM
Cc1cnn(-c2ccc3c(Oc4ccc(NC(=O)C5(C(=O)Nc6ccc(F)cc6)CC5)cc4)ccnc3c2)c1 [Compound 96, 1-N′-(4-Fluorophenyl)-1-N-[4-[7-(4-methylpyrazol-1-yl)quinolin-4-yl]oxyphenyl]cyclopropane-1,1-dicarboxamide]	10 to 100 nM	10 to 100 nM
Nc1cc(-c2ccc3c(Oc4ccc(NC(=O)C5(C(=O)Nc6ccc(F)cc6)CC5)cc4)ccnc3c2)ccn1 [Compound 97, 1-N-[4-[7-(2-Aminopyridin-4-yl)quinolin-4-yl]oxyphenyl]-1-N′-(4-fluorophenyl)cyclopropane-1,1-dicarboxamide]	≤ 10 nM	10 to 100 nM
O=C(Nc1ccc(F)cc1)C1(C(=O)Nc2ccc(Oc3ccnc4cc(-c5ccn(C6CC6)n5)ccc34)cc2)CC1 [Compound 98, 1-N-[4-[7-(1-Cyclopropylpyrazol-3-yl)quinolin-4-yl]oxyphenyl]-1-N′-(4-fluorophenyl)cyclopropane-1,1-dicarboxamide]	100 to 300 nM	10 to 100 nM
Cc1cc(-c2ccc3c(Oc4ccc(NC(=O)C5(C(=O)Nc6ccc(F)cc6)CC5)cc4)ccnc3c2)n[nH]1 [Compound 99, 1-N′-(4-Fluorophenyl)-1-N-[4-[7-(5-methyl-1H-pyrazol-3-yl)quinolin-4-yl]oxyphenyl]cyclopropane-1,1-dicarboxamide]	10 to 100 nM	10 to 100 nM
Cc1cc(-c2ccc3c(Oc4ccc(NC(=O)C5(C(=O)Nc6ccc(F)cc6)CC5)cc4)ccnc3c2)nn1C [Compound 101, 1-N-[4-[7-(1,5-Dimethylpyrazol-3-yl)quinolin-4-yl]oxyphenyl]-1-N′-(4-fluorophenyl)cyclopropane-1,1-dicarboxamide]	10 to 100 nM	10 to 100 nM
O=C(Nc1ccc(F)cc1)C1(C(=O)Nc2ccc(Oc3ccnc4cc(-c5ccn(CF)n5)ccc34)cc2)CC1 [Compound 102, 1-N-[4-[7-[1-(Fluoromethyl)pyrazol-3-yl]quinolin-4-yl]oxyphenyl]-1-N′-(4-fluorophenyl)cyclopropane-1,1-dicarboxamide]	10 to 100 nM	10 to 100 nM
O=C(Nc1ccc(F)cc1)C1(C(=O)Nc2ccc(Oc3ccnc4cc(-c5cc6ccccn6n5)ccc34)cc2)CC1 [Compound 104, 1-N′-(4-Fluorophenyl)-1-N-[4-(7-pyrazolo[1,5-a]pyridin-2-ylquinolin-4-yl)oxyphenyl]cyclopropane-1,1-dicarboxamide]	100 to 300 nM	100 to 300 nM
Cc1cc2c(Oc3cc(F)c(NC(=O)C4(C(=O)Nc5ccc(F)cc5)CC4)cc3F)ccnc2cc1-c1cnn(C)c1 [Compound 105, 1-N′-[2,5-Difluoro-4-[6-methyl-7-(1-methylpyrazol-4-yl)quinolin-4-yl]oxyphenyl]-1-N-(4-fluorophenyl)cyclopropane-1,1-dicarboxamide]	10 to 100 nM	10 to 100 nM
Cc1cc2c(Oc3ccc(NC(=O)C4(C(=O)Nc5ccc(F)cc5)CC4)cc3)ccnc2cc1-c1cc[nH]n1 [Compound 107, 1-N′-(4-Fluorophenyl)-1-N-[4-[6-methyl-7-(1H-pyrazol-3-yl)quinolin-4-yl]oxyphenyl]cyclopropane-1,1-dicarboxamide]	10 to 100 nM	100 to 300 nM
Cc1cc2c(Oc3ccc(NC(=O)C4(C(=O)Nc5ccc(F)cc5)CC4)cc3)ccnc2cc1-c1ccn(C)n1 [Compound 108, 1-N′-(4-Fluorophenyl)-1-N-[4-[6-methyl-7-(1-methylpyrazol-3-yl)quinolin-4-yl]oxyphenyl]cyclopropane-1,1-dicarboxamide]	100 to 300 nM	100 to 300 nM

From US12503438B2, “Compounds for the treatment of kinase-dependent disorders” (Exelixis, Inc., priority 2019, dated 2025)
